{"source": "patent US20120022149A1", "about": "“PHARMACEUTICAL COMPOSITION WITH ENHANCED SOLUBILITY CHARACTERISTICS” (priority 2010, published 2012)", "assay": "Solubility of olopatadine in PEG 6000 and/or PVP vehicles", "format": "physicochemical", "settings": "Table 1 and FIG. 1"}
{"smiles": "CN(C)CC/C=C1/c2ccccc2COc2ccc(CC(=O)O)cc21", "note": "[olopatadine]", "values": [{"measurement": "solubility of olopatadine relative to the concentration of PEG6000", "value": "essentially linear"}]}
